Source: US20240174690A1, “ANNULATED 2-AMINO-3-CYANO THIOPHENES AND DERIVATIVES FOR THE TREATMENT OF CANCER” (BOEHRINGER INGELHEIM INTERNATIONAL GMBH, priority 2021, published 2024)

How the values were obtained:
[1] = tested on: KRAS G12D-dependent Ba/F3 cells; test: Ba/F3 proliferation assay, KRAS G12D; assay type: cell-based; details: Mus musculus, BaF3, 72 h, AlamarBlue
Method in brief: (§1)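 Ba/F3 cells were retrovirally transduced with KRAS G12 mutant vectors, puromycin-selected (1 μg/mL) and grown without IL-3 to make them KRAS-dependent. Compounds were tested in technical duplicates, viability was read by AlamarBlue fluorescence, and values came from curve fitting.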

[2] = tested on: KRAS G12C-dependent Ba/F3 cells; test: Ba/F3 proliferation assay, KRAS G12C; assay type: cell-based; details: Mus musculus, BaF3, 72 h, AlamarBlue
Method in brief: as §1

[3] = tested on: KRAS G12V-dependent Ba/F3 cells; test: Ba/F3 proliferation assay, KRAS G12V; assay type: cell-based; details: Mus musculus, BaF3, 72 h, AlamarBlue;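 note: proliferation IC50 in KRAS G12V-dependent Ba/F3 cells read by AlamarBlue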
Method in brief: as §1

[4] = Metabolic (microsomal) stability assay, human liver microsomes (HLM); assay type: in vitro ADME; details: predicted clearance as percent of liver blood flow, 1 μM
Method in brief: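 LC-MS/MS tracked parent disappearance at 0, 5, 15, 30 and 60 min in NADPH-initiated incubations with 1 mg/mL human microsomal protein and 1 μM compound at 37°C, pH 7.5. First-order fits gave intrinsic clearance, which was scaled up and reported as % QH. NADPH-free controls were also run.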

CYP3A4 = CYP3A4 (Homo sapiens (Human), UniProt P08684); test: Mechanism based inhibition of CYP3A4 assay (MBI 3A4); assay type: in vitro ADME; details: hydroxy-midazolam formation after 30 min vs 0 min preincubation, 25 uM, human liver microsomes
CYP3A4, sequence (P08684 whole entry): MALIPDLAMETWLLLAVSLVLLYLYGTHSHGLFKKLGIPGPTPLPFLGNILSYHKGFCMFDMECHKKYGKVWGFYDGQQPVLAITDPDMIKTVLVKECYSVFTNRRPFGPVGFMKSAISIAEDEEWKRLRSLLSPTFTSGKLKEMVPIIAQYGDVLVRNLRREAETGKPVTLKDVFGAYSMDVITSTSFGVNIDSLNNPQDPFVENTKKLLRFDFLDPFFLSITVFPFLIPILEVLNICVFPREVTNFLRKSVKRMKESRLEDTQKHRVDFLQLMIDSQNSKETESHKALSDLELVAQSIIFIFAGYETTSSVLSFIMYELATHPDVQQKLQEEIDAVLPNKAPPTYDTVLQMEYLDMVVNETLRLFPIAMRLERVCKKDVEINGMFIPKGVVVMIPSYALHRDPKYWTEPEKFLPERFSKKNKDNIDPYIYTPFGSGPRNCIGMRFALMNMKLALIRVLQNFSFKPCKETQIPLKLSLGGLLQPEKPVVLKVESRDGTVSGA
Method in brief: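 Human CYP3A4 activity after 30 min vs 0 min preincubation with test compound; incubate then diluted 1:10 and midazolam added for a 15 min main incubation. Quenched with acetonitrile; hydroxy-midazolam quantified by LC/MS-MS and expressed as % of the 0 min preincubation formation.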

| IC50 [1] | IC50 [2] | IC50 [3] | HLM QH [4] | MBI 3A4 (CYP3A4) | SMILES |
| --- | --- | --- | --- | --- | --- |
| 0.178 µM | 0.077 µM | 0.043 µM | 79% | – | C[C@H](Oc1cc(Cl)nc(-c2onc3c2CCC[C@@]32CCCc3sc(N)c(C#N)c32)n1)[C@@H]1CCCN1C [I-1] |
| 0.124 µM | 0.493 µM | – | 44% | 36% | C[C@H](Oc1nc(-c2onc3c2CCC[C@@]32CCCc3sc(N)c(C#N)c32)cc(N2CCNC3(CC3)C2)n1)[C@@H]1CCCN1C [I-2] |
| 0.03 µM | 0.014 µM | 0.01 µM | 30% | 85% | C[C@H](Oc1cc(-n2ccnc2)nc(-c2onc3c2CCC[C@@]32CCCc3sc(N)c(C#N)c32)n1)[C@@H]1CCCN1C [I-20] |
| 0.024 µM | 0.009 µM | 0.005 µM | <24% | 73% | Cc1nc(-c2cc(O[C@@H](C)[C@@H]3CCCN3C)nc(-c3onc4c3CCC[C@@]43CCCc4sc(N)c(C#N)c43)n2)cs1 [I-24] |
| 0.261 µM | 0.092 µM | 0.057 µM | <24% | – | C[C@H](Oc1cc(-c2ccc(N)nc2)nc(-c2onc3c2CCC[C@@]32CCCc3sc(N)c(C#N)c32)n1)[C@@H]1CCCN1C [I-25] |
| 0.048 µM | 0.017 µM | 0.013 µM | <24% | 71% | C[C@H](Oc1cc(-c2ccn(CC(C)(C)O)n2)nc(-c2onc3c2CCC[C@@]32CCCc3sc(N)c(C#N)c32)n1)[C@@H]1CCCN1C [I-26] |
| 0.064 µM | 0.018 µM | 0.007 µM | <24% | 50% | C[C@H](Oc1cc(-c2cnsc2)nc(-c2onc3c2CCC[C@@]32CCCc3sc(N)c(C#N)c32)n1)[C@@H]1CCCN1C [I-27] |
| 0.25 µM | 0.067 µM | 0.041 µM | <24% | 77% | Cc1ccc(-c2cc(O[C@@H](C)[C@@H]3CCCN3C)nc(-c3onc4c3CCC[C@@]43CCCc4sc(N)c(C#N)c43)n2)cn1 [I-28] |
| 0.071 µM | 0.018 µM | 0.015 µM | 27% | – | C[C@H](Oc1cc(-n2nccn2)nc(-c2onc3c2CCC[C@@]32CCCc3sc(N)c(C#N)c32)n1)[C@@H]1CCCN1C [I-29] |
| 0.014 µM | 0.003 µM | 0.003 µM | 45% | 41% | C[C@H](Oc1cc(-n2ccnn2)nc(-c2onc3c2CCC[C@@]32CCCc3sc(N)c(C#N)c32)n1)[C@@H]1CCCN1C [I-32] |
| 0.243 µM | 0.913 µM | – | 42% | 37% | C[C@H](Oc1nc(-c2onc3c2CCC[C@@]32CCCc3sc(N)c(C#N)c32)cc(N2CCN(C)C3(CC3)C2)n1)[C@@H]1CCCN1C [I-40] |
| 0.44 µM | 0.867 µM | – | 42% | – | C[C@H]1CN(C)CCCN1c1nc(-c2onc3c2CCC[C@@]32CCCc3sc(N)c(C#N)c32)cc(N2CCN(C)C3(CC3)C2)n1 [I-42] |
| 0.091 µM | 0.509 µM | 1.05 µM | <24% | – | C[C@H](Oc1cc(N2CCN(C)C3(CCC3)C2)nc(-c2onc3c2CCC[C@@]32CCCc3sc(N)c(C#N)c32)n1)[C@@H]1CCCN1C [I-44] |
| 0.024 µM | 0.004 µM | 0.004 µM | 51% | – | CO[C@H]1CCN(C)[C@@H]1[C@H](C)Oc1cc(-n2ccc(CC(=O)NC(C)C)n2)nc(-c2onc3c2CCC[C@@]32CCCc3sc(N)c(C#N)c32)n1 [I-48] |
| 0.012 µM | 0.002 µM | 0.001 µM | 56% | – | CO[C@H]1CCN(C)[C@@H]1[C@H](C)Oc1cc(-n2ccc(C(=O)N[C@@H]3CCOC3)n2)nc(-c2onc3c2CCC[C@@]32CCCc3sc(N)c(C#N)c32)n1 [I-53] |
| 0.007 µM | 0.001 µM | 0.001 µM | 52% | – | CO[C@H]1CCN(C)[C@@H]1[C@H](C)Oc1cc(-n2ccc(C(=O)N[C@H]3CCOC3)n2)nc(-c2onc3c2CCC[C@@]32CCCc3sc(N)c(C#N)c32)n1 [I-54] |
| 0.012 µM | 0.002 µM | 0.001 µM | 56% | – | COCCNC(=O)c1ccn(-c2cc(O[C@@H](C)[C@@H]3[C@@H](OC)CCN3C)nc(-c3onc4c3CCC[C@@]43CCCc4sc(N)c(C#N)c43)n2)n1 [I-55] |
| 0.016 µM | 0.003 µM | 0.004 µM | 25% | – | C[C@H](Oc1cc(-n2ccc(C(=O)N[C@@H]3CCOC3)n2)nc(-c2onc3c2CCC[C@@]32CCCc3sc(N)c(C#N)c32)n1)[C@@H]1CCCN1C [I-56] |
| 0.008 µM | 0.001 µM | 0.001 µM | – | – | C[C@H](Oc1cc(-n2ccc(C(=O)N[C@H]3CCOC3)n2)nc(-c2onc3c2CCC[C@@]32CCCc3sc(N)c(C#N)c32)n1)[C@@H]1CCCN1C [I-57] |

| IC50 [1] | IC50 [2] | IC50 [3] | HLM QH [4] | MBI 3A4 (CYP3A4) | SMILES |
| --- | --- | --- | --- | --- | --- |
| 0.011 µM | 0.004 µM | 0.006 µM | 34% | – | COCCNC(=O)c1ccn(-c2cc(O[C@@H](C)[C@@H]3CCCN3C)nc(-c3onc4c3CCC[C@@]43CCCc4sc(N)c(C#N)c43)n2)n1 [I-58] |
| 0.013 µM | 0.002 µM | 0.001 µM | <24% | – | C[C@H](NC(=O)c1ccn(-c2cc(O[C@@H](C)[C@@H]3CCCN3C)nc(-c3onc4c3CCC[C@@]43CCCc4sc(N)c(C#N)c43)n2)n1)c1ccccn1 [I-59] |
| 0.022 µM | 0.005 µM | 0.004 µM | <24% | – | C[C@H](Oc1cc(-n2ccc(C(=O)N(C)C3COC3)n2)nc(-c2onc3c2CCC[C@@]32CCCc3sc(N)c(C#N)c32)n1)[C@@H]1CCCN1C [I-60] |
| 0.094 µM | 0.277 µM | 0.196 µM | <24% | – | C[C@H](Oc1cc(N2CC(N(C)C)C2)nc(-c2noc3c2CCC[C@@]32CCCc3sc(N)c(C#N)c32)n1)[C@@H]1CCCN1C [II-7] |
| 0.144 µM | 0.301 µM | 0.316 µM | <24% | – | C[C@H](Oc1cc(N2CCN(CCO)CC2)nc(-c2noc3c2CCC[C@@]32CCCc3sc(N)c(C#N)c32)n1)[C@@H]1CCCN1C [II-8] |
| 0.053 µM | 0.008 µM | 0.004 µM | <24% | – | CCOC(=O)c1ccn(-c2cc(O[C@@H](C)[C@@H]3CCCN3C)nc(-c3noc4c3CCC[C@@]43CCCc4sc(N)c(C#N)c43)n2)n1 [II-23] |
| > 25 µM | 9.22 µM | 8.11 µM | <24% | – | C[C@H](Oc1cc(-n2ccc(C(=O)O)n2)nc(-c2noc3c2CCC[C@@]32CCCc3sc(N)c(C#N)c32)n1)[C@@H]1CCCN1C [II-24] |
| 0.09 µM | 0.035 µM | 0.027 µM | 51% | – | C[C@H](Oc1cc(-c2cnn(C)n2)nc(-c2noc3c2CCC[C@@]32CCCc3sc(N)c(C#N)c32)n1)[C@@H]1C[C@@H](F)CN1C [II-28] |
| 0.273 µM | 1.05 µM | – | <24% | – | C[C@H]1CN(C)CCCN1c1cc(N2CCN(C)CC2)nc(-c2noc3c2CCC[C@@]32CCCc3sc(N)c(C#N)c32)n1 [II-30] |
| 0.082 µM | 0.527 µM | 0.657 µM | <24% | – | C[C@H](Oc1cc(N2C[C@H]3CN(C)C[C@H]3C2)nc(-c2noc3c2CCC[C@@]32CCCc3sc(N)c(C#N)c32)n1)[C@@H]1CCCN1C [II-33] |
| 0.064 µM | 0.33 µM | 0.39 µM | <24% | – | C[C@@H]1CN(c2cc(O[C@@H](C)[C@@H]3CCCN3C)nc(-c3noc4c3CCC[C@@]43CCCc4sc(N)c(C#N)c43)n2)C[C@H](C)N1 [II-36] |
| 0.068 µM | 0.193 µM | – | 52% | – | C[C@H](Oc1cc(N2CCN(C)CC2)nc(-c2noc3c2CCC[C@@]32CCCc3sc(N)c(C#N)c32)n1)[C@@H]1CCCN1[C@@H]1CCOC1 [II-39] |
| 0.026 µM | 0.49 µM | 0.98 µM | <24% | – | C[C@H](Oc1cc(N2CCNC3(CCCC3)C2)nc(-c2noc3c2CCC[C@@]32CCCc3sc(N)c(C#N)c32)n1)[C@@H]1CCCN1C [II-41] |
| 0.058 µM | 0.606 µM | 0.642 µM | – | – | C[C@H](Oc1cc(N2CCNCC2)nc(-c2noc3c2CCC[C@@]32CCCc3sc(N)c(C#N)c32)n1)[C@@H]1CCCN1C [II-45] |
| 0.116 µM | 0.05 µM | – | 27% | 91% | C[C@H](Oc1nc(-c2noc3c2CCC[C@@]32CCCc3sc(N)c(C#N)c32)cc(N2C[C@H](C)N[C@@H](C)C2)n1)[C@@H]1CCCN1C [II-46] |
| 1.04 µM | 0.004 µM | 0.004 µM | 54% | – | C[C@H](Oc1cc(-n2ccsc2=O)nc(-c2noc3c2CCC[C@@]32CCCc3sc(N)c(C#N)c32)n1)[C@@H]1CCCN1C [II-135] |
| 0.003 µM | 0.112 µM | 0.166 µM | 48% | – | [2H]C([2H])([2H])N1C[C@H](F)C[C@H]1[C@H](C)Oc1cc(N2CCNC3(CC3)C2)nc(-c2noc3c2CCC[C@@]32CCCc3sc(N)c(C#N)c32)n1 [II-208] |
| 0.018 µM | 0.271 µM | 0.389 µM | 40% | – | [2H]C([2H])([2H])N1C[C@H](F)C[C@H]1[C@H](C)Oc1cc(N2CCN(C)C3(CC3)C2)nc(-c2noc3c2CCC[C@@]32CCCc3sc(N)c(C#N)c32)n1 [II-209] |
